“And” between values parts separate entries of the source, which are not always exact repeats. Equal entries are not always repeated. Toxic doses and inconclusive results are not listed.
Test system: P388 leukemia ip, CD2F1 mice, survival T/C
Assay: NCI In Vivo Anticancer Drug Screen. Data for tumor model P388 Leukemia (intraperitoneal) in CD2F1 (CDF1) mice
Conditions: endpoint: median survival time, higher = longer survival
Summary of the method: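 Mice carrying the transplanted tumor received test compound or vehicle. Survival was recorded in each group, and the value is the treated-group measurement divided by that of the vehicle-treated control group.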

[1] = dose: 60.0 mg/kg/injection, schedule: Q01DX005 (ip), vehicle: Klucel (hydroxypropylcellulose) (HPC)
[2] = dose: 120.0 mg/kg/injection, schedule: Q01DX005 (ip), vehicle: Klucel (hydroxypropylcellulose) (HPC)
[3] = dose: 30.0 mg/kg/injection, schedule: Q01DX005 (ip), vehicle: Klucel (hydroxypropylcellulose) (HPC)
[4] = dose: 50.0 mg/kg/injection, schedule: Q01DX005 (ip), vehicle: Klucel (hydroxypropylcellulose) (HPC)
[5] = dose: 100.0 mg/kg/injection, schedule: Q01DX005 (ip), vehicle: Klucel (hydroxypropylcellulose) (HPC)
[6] = dose: 200.0 mg/kg/injection, schedule: Q01DX005 (ip), vehicle: Klucel (hydroxypropylcellulose) (HPC)
[7] = dose: 50.0 mg/kg/injection, schedule: Q01DX009 (ip), vehicle: Klucel (hydroxypropylcellulose) (HPC)
[8] = dose: 100.0 mg/kg/injection, schedule: Q01DX009 (ip), vehicle: Klucel (hydroxypropylcellulose) (HPC)
[9] = dose: 200.0 mg/kg/injection, schedule: Q01DX009 (ip), vehicle: Klucel (hydroxypropylcellulose) (HPC)
[10] = dose: 50.0 mg/kg/injection, schedule: Q01DX009 (ip), vehicle: saline with Tween-80

COc1ccc(/C(C#N)=C\c2ccco2)cc1
T/C (dose: 50.0 mg/kg/injection, schedule: Q01DX009 (ip), vehicle: saline): 111 % of control
T/C (dose: 100.0 mg/kg/injection, schedule: Q01DX009 (ip), vehicle: saline): 110 % of control
T/C (dose: 200.0 mg/kg/injection, schedule: Q01DX009 (ip), vehicle: saline): 101 % of control

NC(=O)C1C2C=CC(C2)C1C(N)=O (stereo not drawn)
T/C [1]: 97 % of control
T/C [2]: 103 % of control
T/C (dose: 240.0 mg/kg/injection, schedule: Q01DX005 (ip), vehicle: Klucel (hydroxypropylcellulose) (HPC)): 97 % of control

CC1=CC(=O)C(O)C2(C)C1CC1OC(=O)C(OC(=O)c3ccccc3)C3(O)C4(C)OCC13C2C(O)C4O (stereo not drawn)
T/C (dose: 0.75 mg/kg/injection, schedule: Q01DX005 (ip), vehicle: saline + alcohol): 101 % of control
T/C (dose: 1.5 mg/kg/injection, schedule: Q01DX005 (ip), vehicle: saline + alcohol): 101 % of control
T/C (dose: 3.0 mg/kg/injection, schedule: Q01DX005 (ip), vehicle: saline + alcohol): 108 % of control
T/C (dose: 6.0 mg/kg/injection, schedule: Q01DX005 (ip), vehicle: saline + alcohol): 105 % of control

O=C(O)c1ccc(N=NC2Sc3nc4ccccc4n3C2=O)cc1 (stereo not drawn)
T/C [1]: 92 % of control
T/C [2]: 91 % of control

N#CC(C#N)=C(C#N)Nc1ccc(F)cc1
T/C [3]: 91 % of control
T/C [1]: 90 % of control

CCCCCCCC(=O)NN
T/C (dose: 12.5 mg/kg/injection, schedule: Q01DX009 (ip), vehicle: suspension in saline): 96 % of control
T/C (dose: 25.0 mg/kg/injection, schedule: Q01DX009 (ip), vehicle: suspension in saline): 96 % of control
T/C (dose: 50.0 mg/kg/injection, schedule: Q01DX009 (ip), vehicle: suspension in saline): 97 % of control
T/C (dose: 100.0 mg/kg/injection, schedule: Q01DX009 (ip), vehicle: suspension in saline): 96 % of control

CC(C)N(c1ccnc(F)n1)C(C)C
T/C [3]: 102 % of control
T/C [1]: 104 % of control

Cc1ccc(NC(=O)Oc2ccc(Cl)cc2Cl)c([N+](=O)[O-])c1
T/C (dose: 50.0 mg/kg/injection, schedule: Q01DX009 (ip), vehicle: gum acacia): 109 % of control
T/C (dose: 100.0 mg/kg/injection, schedule: Q01DX009 (ip), vehicle: gum acacia): 109 % of control
T/C (dose: 200.0 mg/kg/injection, schedule: Q01DX009 (ip), vehicle: gum acacia): 109 % of control

CN(C)CCCC[N+](C)(C)Cc1ccc(C[N+](C)(C)CCCC[N+](C)(C)Cc2ccc(CCl)cc2)cc1
T/C (dose: 3.12 mg/kg/injection, schedule: Q04DX003 (ip), vehicle: saline): 100 % of control
T/C (dose: 6.25 mg/kg/injection, schedule: Q04DX003 (ip), vehicle: saline): 94 % of control
T/C (dose: 12.5 mg/kg/injection, schedule: Q04DX003 (ip), vehicle: saline): 100 % of control and 111 % of control and 96 % of control
T/C (dose: 25.0 mg/kg/injection, schedule: Q04DX003 (ip), vehicle: saline): 100 % of control and 113 % of control

C[C@]12CC[C@@H]3c4ccc(O)cc4CC[C@H]3[C@@H]1CC[C@@H]2NCCCCCCO
T/C [4]: 92 % of control
T/C [5]: 97 % of control

COc1ccc2nc3cc(Cl)ccc3c(NCC(O)CNc3c4ccc(Cl)cc4nc4ccc(OC)nc34)c2n1
T/C (dose: 60.0 mg/kg/injection, schedule: Q01DX005 (ip), vehicle: saline with Tween-80): 92 % of control
T/C (dose: 120.0 mg/kg/injection, schedule: Q01DX005 (ip), vehicle: saline with Tween-80): 90 % of control
T/C (dose: 240.0 mg/kg/injection, schedule: Q01DX005 (ip), vehicle: saline with Tween-80): 90 % of control

O=NNc1ccc(Sc2ccc(NN=O)nc2)cc1
T/C (dose: 3.12 mg/kg/injection, schedule: Q01DX009 (ip), vehicle: water): 124 % of control
T/C (dose: 6.25 mg/kg/injection, schedule: Q01DX009 (ip), vehicle: water): 123 % of control
T/C (dose: 12.5 mg/kg/injection, schedule: Q01DX009 (ip), vehicle: water): 100 % of control

CCOC(=O)C1Cc2c([nH]c(=O)[nH]c2=O)OC1c1ccc(OC)cc1 (stereo not drawn)
T/C [4]: 97 % of control
T/C [5]: 100 % of control
T/C [6]: 97 % of control

Cc1ccc(-n2cnc3c(N)nc(N)nc32)cc1
T/C (dose: 1.56 mg/kg/injection, schedule: Q01DX005 (ip), vehicle: saline with Tween-80): 100 % of control
T/C (dose: 3.13 mg/kg/injection, schedule: Q01DX005 (ip), vehicle: saline with Tween-80): 108 % of control
T/C (dose: 6.25 mg/kg/injection, schedule: Q01DX005 (ip), vehicle: saline with Tween-80): 108 % of control and 112 % of control
T/C (dose: 12.5 mg/kg/injection, schedule: Q01DX005 (ip), vehicle: saline with Tween-80): 115 % of control

CC1=NN(c2ccc(S(=O)(=O)O)cc2)C(=O)C1N=Nc1ccc(C)c(S(=O)(=O)Nc2ccccc2)c1 (stereo not drawn)
T/C [7]: 101 % of control
T/C [8]: 99 % of control
T/C [9]: 101 % of control

COC(=O)[C@@]12OC[C@@]34[C@@H](CC5=C(C)C(=O)C(O)=C[C@]5(C)[C@H]3[C@@H](O)[C@@H]1O)OC(=O)[C@H](OC(=O)/C=C(\C)C(C)(C)OC(C)=O)[C@@H]24
T/C (dose: 0.25 mg/kg/injection, schedule: Q01DX009 (ip), vehicle: saline + alcohol): 106 % of control
T/C (dose: 0.5 mg/kg/injection, schedule: Q01DX009 (ip), vehicle: saline + alcohol): 110 % of control and 123 % of control
T/C (dose: 4.0 mg/kg/injection, schedule: Q01DX009 (ip), vehicle: saline + alcohol): 157 % of control and 159 % of control
T/C (dose: 8.0 mg/kg/injection, schedule: Q01DX009 (ip), vehicle: saline + alcohol): 175 % of control

Cc1ccc(/C=C2\SC(=S)N(C3CC3)C2=O)cc1
T/C [4]: 97 % of control
T/C [5]: 95 % of control
T/C [6]: 93 % of control

[C-]#[N+]C1CC2CCC1C2.[C-]#[N+]C1CC2CCC1C2.[C-]#[N+]C1CC2CCC1C2.[C-]#[N+]C1CC2CCC1C2.[C-]#[N+]C1CC2CCC1C2.[C-]#[N+]C1CC2CCC1C2.[Mn] (stereo not drawn)
T/C (dose: 0.19 mg/kg/injection, schedule: Q01DX009 (ip), vehicle: saline with Tween-80): 115 % of control
T/C (dose: 0.38 mg/kg/injection, schedule: Q01DX009 (ip), vehicle: saline with Tween-80): 156 % of control

Nc1ccc(S(=O)(=O)Nc2cnc3c(Cl)cccc3n2)cc1
T/C (dose: 50.0 mg/kg/injection, schedule: Q01DX005 (ip), vehicle: DMSO): 98 % of control and 99 % of control
T/C [4]: 108 % of control
T/C (dose: 100.0 mg/kg/injection, schedule: Q01DX005 (ip), vehicle: DMSO): 108 % of control and 116 % of control
T/C [5]: 106 % of control
T/C (dose: 200.0 mg/kg/injection, schedule: Q01DX005 (ip), vehicle: DMSO): 121 % of control
T/C [6]: 111 % of control
T/C (dose: 400.0 mg/kg/injection, schedule: Q01DX005 (ip), vehicle: DMSO): 120 % of control

CCCCOC(=O)/C=C(\I)C(=O)OCCCC
T/C (dose: 6.25 mg/kg/injection, schedule: Q01DX009 (ip), vehicle: saline with Tween-80): 101 % of control and 110 % of control and 92 % of control
T/C (dose: 12.5 mg/kg/injection, schedule: Q01DX009 (ip), vehicle: saline with Tween-80): 112 % of control and 114 % of control and 96 % of control
T/C (dose: 25.0 mg/kg/injection, schedule: Q01DX009 (ip), vehicle: saline with Tween-80): 113 % of control and 120 % of control and 124 % of control
T/C [10]: 110 % of control and 111 % of control and 118 % of control

Cc1nc2ccccc2nc1NNc1ccccc1
T/C (dose: 50.0 mg/kg/injection, schedule: Q01DX005 (ip), vehicle: saline with Tween-80): 90 % of control
T/C (dose: 100.0 mg/kg/injection, schedule: Q01DX005 (ip), vehicle: saline with Tween-80): 87 % of control
T/C (dose: 200.0 mg/kg/injection, schedule: Q01DX005 (ip), vehicle: saline with Tween-80): 87 % of control

NC(=O)c1cc([N+](=O)[O-])cc([N+](=O)[O-])c1
T/C (dose: 25.0 mg/kg/injection, schedule: Q01DX009 (ip), vehicle: Klucel (hydroxypropylcellulose) (HPC)): 103 % of control
T/C [7]: 88 % of control
T/C [8]: 91 % of control

Clc1ccc(N=NN2CCc3ccccc3C2)cc1
T/C [7]: 99 % of control
T/C [8]: 99 % of control
T/C [9]: 93 % of control

CCCCCCOC(=O)c1ccccc1NC(=O)NN1CCCCCC1
T/C [4]: 100 % of control
T/C [5]: 102 % of control
T/C [6]: 100 % of control

CC(C)(C)/C=C/N=NNc1ccccc1C(=O)NC(C)(C)C
T/C (dose: 15.0 mg/kg/injection, schedule: Q01DX005 (ip), vehicle: Klucel + Tween-80): 95 % of control
T/C (dose: 30.0 mg/kg/injection, schedule: Q01DX005 (ip), vehicle: Klucel + Tween-80): 101 % of control
T/C (dose: 60.0 mg/kg/injection, schedule: Q01DX005 (ip), vehicle: Klucel + Tween-80): 87 % of control and 89 % of control

CCc1cnc2ccccc2c1/C=C/c1ccc(N(C)C)cc1
T/C [10]: 98 % of control
T/C (dose: 100.0 mg/kg/injection, schedule: Q01DX009 (ip), vehicle: saline with Tween-80): 105 % of control
T/C (dose: 200.0 mg/kg/injection, schedule: Q01DX009 (ip), vehicle: saline with Tween-80): 103 % of control

— PubChem BioAssay AID330 (DTP/NCI, 2004)
